From patent US12527819B2, “Method of preventing or treating viral infections” (Vector Vitale IP LLC, priority 2020, dated 2026)
In brackets after ≈: the same amount, converted by molar mass. Where two headings read alike, the source gives them in different places.

Assays:
[1] = in vitro; conditions: dog
[2] = tested on: MDCK cells; parameters: unit not given beside the values
[3] = tested on: MDBK cells; experiment: Mitotic regime of MDBK cells (cytological analysis); assay type: cell-based, bovine; conditions: dilution 1:1000; for Abnormal mitoses MDBK / Mitotic activity MDBK: relative to tissue control
Description: Cytological analysis was performed after fixing the cells grown on cover-glasses in Shabadash's fluid (9 parts of copper nitrate in ethyl alcohol+1 part of formalin) for 30 minutes. The samples for the cytological analysis were stained using hematoxylin and eosin stain according to the generally accepted procedure.
The mitotic index was calculated by analyzing 3000-10000 observed cells and was expressed in ppm (‰), which was the number of mitoses per 1000 cells. At the same time, the presence of pathological forms of mitosis was determined. A classification developed by V. N. Blyumkin was used for the analysis of pathological mitoses.
The examination of cytological preparations was carried out with lenses ×40 and ×100, eyepiece ×10 in a Standard 20, Zeiss microscope.
The experiment was conducted on the culture of MDBK cells that were treated with various options of the drugs. After 24 hours of contact the cells were fixed and cytological preparations were made using a standard technique.
The culture of MDBK cells was selected for the study. The cells were treated with various drug options at concentrations nontoxic for cells. After 24 hours of contact, the cells were fixed and cytological preparations were prepared according to a conventional technique.

[4] = tested on: Raji cells
Description: A colorimetric assay using MTT 3-(4,5-dimethylthiazol-2-yl)-2,5-diphenyltetrazolium bromide (Sigma, USA) is based on the features of functioning of the dehydrogenase system of mitochondria of living cells which, under normal conditions, reprocess the artificial substrate MTT into a formazan that can be accounted spectrophotometrically.
The MTT substrate (Sigma, USA) was dissolved in sterile phosphate buffered saline (pH 7.2) at room temperature to a concentration of 5 mg/ml. The filtered MTT solution in a volume of 20 μl was added to the wells of a 96-well plate and incubated with the cells for 2 to 4 hours at 37° C. After incubation, the medium was removed, and 150 μl of 96° ethanol was added to the cells to dissolve the formazan crystals. The optical density of the solutions was determined spectrophotometrically using a Multican FC reader (“Thermo Scientific” (USA)) at a wavelength of 540 nm.
Cytotoxicity of the preparations under study was assessed using the MTT (3-(4,5-dimethylthiazol-2-yl)-2-5-diphenyltetrozolium bromide) assay, one of the commonly used colorimetric assay (Sigma USA). This assay determined cell viability through determination of mitochondrial function of cells by measuring activity of mitochondrial enzymes such as succinate dehydrogenase. In this assay, MTT is reduced to a purple formazan by NADH, which can be quantified spectrophotometrically. […] The purple color was measured at an excitation wavelength of 540 nm using a Thermo Scientific (USA) reader.

[5] = tested on: herpes simplex virus; experiment: Light water at various doses in mice infected intracerebrally with herpes virus; assay type: in vivo; conditions: 14 day; for Number of survived mice: 8 mice
Description: Thus 50, 100 and 200 μl per mouse were administered to the infected animals.
Groups consisting of 8 mice each were included in the experiment. […] The first administration of drugs was 24 hours later. After infection, there were 4 injections in total given every other day. Uninfected mice who received intracerebral injections of 30 μl of normal saline solution and the mice infected with HSV served as a control.

[6] = tested on: influenza virus A/FM/1/47 (H1N1); assay type: in vivo, BALB/c mice; conditions: reference drug, 1000 μg/kg
[7] = tested on: herpes virus; experiment: Herpes virus meningoencephalitis model in mice, treatment regimen; conditions: dose 100 μg
Description: The anti-herpes activity of zinc preparations was studied in the model of herpes virus meningoencephalitis in BALB/c mice (18-20 g in weight) with their intracerebral administration at a dose of 0.03 ml. In all the experimental groups, the drug was administered intraperitoneally at a dose of 0.1 ml. […] 4B—Zn-64 citrate in deuterium-depleted water—3 mg/ml • 2. 4B-2—Zn citrate in deuterium-depleted water—3 mg/ml • 3. 8B—Zn-64 glutamate in deuterium-depleted water—3 mg/ml • 4. 8B-2—Zn glutamate in deuterium-depleted water—3 mg/ml • 5. 9B—Zn-64 glycine-methionine in deuterium-depleted water—1 mg/ml • 6. 9B-2—Zn glycine-methionine in deuterium-depleted water—1 mg/ml
The drug activity was evaluated by comparing the lethality in the experimental and control groups. The following factors were taken into account: • percentage of animals that died • multiplicity of protection (MP)—multiplicity of decrease in the number of dead mice in the experimental group compared to the control group • efficacy index (EI) of the drugs was determined using the following formula:

N[C@@H](CC(=O)O)C(=O)O [9a, aspartic acid]
CC50 at 5 days [1]: 42 µg/mL (≈ 316 µM)
CC50 as dilution [2]: 1/80

Cc1ccc(S(=O)(=O)Nc2ccccc2NC(=O)c2ccccc2)cc1 [10-3, n-n-toluenesulfonyl-n-benzoyl-o-phenylenediamine]
Abnormal mitoses in % ([3]; MDBK, 24 h): 25.0%
Mitotic activity in % ([3]; MDBK, 24 h): 16.0%
Abnormal mitoses MDBK [3]: 1.12
Mitotic activity MDBK [3]: 0.88
viability of Raji cells (MTT reading) ([4]; 0.9 μg/ml): 1.287
viability of Raji cells (MTT reading) ([4]; 9 μg/ml): 1.235
viability of Raji cells (MTT reading) ([4]; 18 μg/ml): 0.1791
viability of Raji cells (MTT reading) ([4]; 90 μg/ml): 0.152
CC50 ([4]; Raji cells, MTT): 33.46 µg/mL (≈ 91.3 µM)

N[C@@H](CCC(=O)O)C(=O)O [10a, glutamic acid]
Abnormal mitoses in % ([3]; MDBK, 24 h): 22.2%
Abnormal mitoses MDBK [3]: 1.0
Mitotic activity MDBK [3]: 0.77
CC50 as dilution [2]: 1:160

Nc1nc2c(ncn2COCCO)c(=O)[nH]1 [Aciclovir, Acyclovir, reference compound]
MP (%) ([5]; reference, dose not given): 25%
Number of survived mice ([5]; reference, dose not given): 2

O=C(O)CC(O)(CC(=O)O)C(=O)O [No 8a, citric acid]
CC50 at 5 days [1]: 14 µg/mL (≈ 72.9 µM)
CC50 as dilution [2]: 1/160

CCOC(=O)C1=C[C@@H](OC(CC)CC)[C@H](NC(C)=O)[C@@H](N)C1 [Tamiflu]
EI (efficacy index) [6]: 70
Inhibition of infectious titer in cerebral tissue in lg TCD50 [6]: 2.5 lg TCD50
Number of mice that died, % ([6]; 10 mice): 30.0%
Number of mice that died, total ([6]; 10 mice): 3

Deuterium-depleted water
MP (%) ([5]; 50 μl/mouse): 38%
Number of survived mice ([5]; 50 μl/mouse, 4 injections): 3
MP (%) ([5]; 100 μl/mouse): 50%
Number of survived mice ([5]; 100 μl/mouse, 4 injections): 4
MP (%) ([5]; 200 μl/mouse): 75%
Number of survived mice ([5]; 200 μl/mouse, 4 injections): 6
EI (efficacy index) [7]: 50.0
Inhibition of infectious titer in cerebral tissue in lg TCD50 [7]: 2.0 lg TCD50
MP (multiplicity of protection) [7]: 2.0
Number of mice that died, % ([7]; 10 mice): 50.0%
Number of mice that died, total ([7]; 10 mice): 5
